Data reported in US9527839B2, “Benzimidazole tetrahydropyran derivatives” (Merck Sharp & Dohme Corp., priority 2012, dated 2016).

Molecular target: recombinant human AMPK complex 7 (containing α2β1γ1) (Homo sapiens (Human), UniProt P54646+Q9Y478)
Assay: In vitro AMPK activation assay (AMPKSAMSF), complex 7
Assay type: biochemical
Conditions: recombinant human AMPK complex 7 (α2β1γ1)
Method: (§1) The recombinant human AMPK complex 1 (containing α1β1γ1) or AMPK complex 7 (containing α2β1γ1) was obtained from baculovirus expression system. Recombinant viruses were generated by cotransfection of AMPK/pBacPak9 clones with Baculogold baculovirus DNA (Pharmingen) in spodoptera frugiperda 21 cells according to the manufacturer's instructions. Each round of virus amplification was performed for 5 days in Grace's medium containing 10% serum. Virus that had been subjected to three rounds of amplification was used for all protein production procedures. To express the AMPK complex, sf21 cells were adapted to serum free medium (SF900 II, Invitrogen) by sequential dilution from serum containing stocks into SF900II medium and maintained in shaker flasks at 90 rpm at 27° C. The recombinant AMPK enzyme complex was produced by triple infection, one recombinant virus for each of the subunits, in sf21 cells under serum free conditions. Cells were infected in log phase, 1×10^6 cells/ml, at a multiplicity of infection of 5. Cells were harvested by centrifugation at 10,000×g for 15 minutes after 72 hours of infection with viruses. The insect cell pellet from 2 liters of culture was resuspended in 50 ml lysis buffer (20 mM Tris-HCl, 50 mM NaCl, 50 mM NaF, 30 mM Na PPi, 0.25 M sucrose, 10 mM ZnCl2, 2 mM DTT, 0.4 mg/ml digitonin) and subjected to two cycles of freeze-thaw lysis in a dry-ice ethanol bath. Insoluble material was removed by centrifugation at 10,000×g and the supernatant was fractionated with use of polyethylene glycol (PEG). The protein fraction precipitating between 2.5 and 6% PEG was used for further purification using a Blue-Sepharose step (Zhou et al, J. Clin. Invest. 108, 1167-1174, 2001).
(§2) The in vitro AMPK activation assay is performed in a volume of 30 μl in a 384-well plate. Enzyme reactions were assembled in the microtiter plate by adding 15 μl of 2X enzyme in assay buffer (20 mM HEPES, pH 7.3, 5 mM MgCl2, 3 mM DTT, 0.01% Brij 35 and CamK Kinase, to activate AMPK) to wells which contained either DMSO or compound. The reaction was initiated with the addition of 15 μl 2× substrate mixture containing 200 μM ATP, and 3.0 μM fluorescently labeled SAMS (5-FAM-HMRSAMSGLHLVKRR-COOH) in assay buffer. After 45-minute incubation at 25° C., the reaction was stopped by the addition of 70 μl stop buffer (100 mM HEPES, pH 7.3, 40 mM EDTA, 0.015% Brij 35). Phosphorylated 5-FAM SAMS product is assessed using a Caliper EZ Reader LabChip microfluidics reader. Product conversion is determined by calculating the peak heights of the substrate and product and reporting the product/(product+substrate) peak ratio. The 10-point titration data were expressed as % maximum AMP activation. The results were plotted using 4 parameter fit and the inflection point reflecting 50% of the maximum activation was reported as the EC50.

recombinant human AMPK complex 7 (containing α2β1γ1), sequence (P54646 whole entry): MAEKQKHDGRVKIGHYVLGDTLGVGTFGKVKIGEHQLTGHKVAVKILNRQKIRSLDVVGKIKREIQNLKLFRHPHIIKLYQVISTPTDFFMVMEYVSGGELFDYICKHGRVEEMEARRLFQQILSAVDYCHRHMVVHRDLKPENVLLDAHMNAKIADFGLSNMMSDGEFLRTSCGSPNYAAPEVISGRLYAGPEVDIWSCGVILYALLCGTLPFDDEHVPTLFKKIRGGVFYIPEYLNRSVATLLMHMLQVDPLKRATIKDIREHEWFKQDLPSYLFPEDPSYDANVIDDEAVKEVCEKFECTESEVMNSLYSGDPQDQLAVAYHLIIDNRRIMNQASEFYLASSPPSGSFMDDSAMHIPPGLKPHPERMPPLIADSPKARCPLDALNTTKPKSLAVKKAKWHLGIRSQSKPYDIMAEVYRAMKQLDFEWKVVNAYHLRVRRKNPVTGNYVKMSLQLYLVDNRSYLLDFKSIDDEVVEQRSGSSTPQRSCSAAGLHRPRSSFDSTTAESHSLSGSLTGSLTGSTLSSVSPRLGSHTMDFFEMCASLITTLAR
recombinant human AMPK complex 7 (containing α2β1γ1), sequence (Q9Y478 whole entry): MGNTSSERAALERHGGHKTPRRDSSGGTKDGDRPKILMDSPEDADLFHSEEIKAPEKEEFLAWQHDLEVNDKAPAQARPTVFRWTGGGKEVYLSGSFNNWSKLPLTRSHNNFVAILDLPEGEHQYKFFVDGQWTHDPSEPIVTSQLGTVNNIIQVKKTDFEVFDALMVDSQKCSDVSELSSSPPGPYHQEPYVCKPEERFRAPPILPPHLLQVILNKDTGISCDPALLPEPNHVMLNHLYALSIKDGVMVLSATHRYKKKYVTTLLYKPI
recombinant human AMPK complex 7 (containing α2β1γ1), sequence (P54619 whole entry partner): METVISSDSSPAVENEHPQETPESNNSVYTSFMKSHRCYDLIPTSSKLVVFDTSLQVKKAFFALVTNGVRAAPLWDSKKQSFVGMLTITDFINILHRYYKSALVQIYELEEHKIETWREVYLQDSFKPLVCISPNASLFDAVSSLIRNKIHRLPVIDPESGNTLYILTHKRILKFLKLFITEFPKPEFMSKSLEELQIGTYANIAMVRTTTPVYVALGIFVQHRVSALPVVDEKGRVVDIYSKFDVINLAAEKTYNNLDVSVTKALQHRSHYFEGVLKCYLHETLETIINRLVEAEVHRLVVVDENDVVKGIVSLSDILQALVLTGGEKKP

| EC50 [nM] | SMILES |
| --- | --- |
| 7 | OC[C@H]1OC[C@H](Oc2nc3cc(-c4ccc(-c5ccc(-c6nccc(O)n6)cc5)cc4)c(Cl)cc3[nH]2)C[C@@H]1O [Example 6] |
| 6 | CC(CO)(CO)c1ccc(-c2ccc(-c3cc4nc(O[C@H]5CO[C@H](CO)[C@@H](O)C5)[nH]c4cc3Cl)cc2)cc1 [Example 7] |
| 12 | OC[C@H]1OC[C@H](Oc2nc3cc(-c4ccc(-c5ccc(C6CNCCO6)cc5)cc4)c(Cl)cc3[nH]2)C[C@@H]1O (stereo partly drawn) [Example 8] |
| 7 | N=c1nc(N)[nH]n1-c1ccc(-c2ccc(-c3cc4nc(O[C@H]5CO[C@H](CO)[C@@H](O)C5)[nH]c4cc3Cl)cc2)cc1 [Example 16] |
| 14 | O=S(=O)(c1ccc(-c2ccc(-c3cc4nc(O[C@H]5CO[C@H](CO)[C@@H](O)C5)[nH]c4cc3Cl)cc2)cc1)C1CCNCC1 [Example 18] |
| 15 | O=C1NCCC1c1ccc(-c2ccc(-c3cc4nc(O[C@H]5CO[C@H](CO)[C@@H](O)C5)[nH]c4cc3Cl)cc2)cc1 (stereo partly drawn) [Example 19] |
| 9 | OC[C@H]1OC[C@H](Oc2nc3cc(-c4ccc(-c5ccc(-n6cncn6)cc5)cc4)c(Cl)cc3[nH]2)C[C@@H]1O [Example 21] |
| 18 | OC[C@H]1OC[C@H](Oc2nc3cc(-c4ccc(-c5ccc(-c6nnn[nH]6)cc5)cc4)c(Cl)cc3[nH]2)C[C@@H]1O [Example 23] |
| 18 | CC(C)(O)Cc1cnn(-c2ccc(-c3ccc(-c4cc5nc(O[C@H]6CO[C@H](CO)[C@@H](O)C6)[nH]c5cc4Cl)cc3)cc2)c1 [Example 24] |
| 3 | OC[C@H]1OC[C@H](Oc2nc3c(F)c(-c4ccc(-c5ccc(-c6nccc(O)n6)cc5)cc4)c(F)cc3[nH]2)C[C@@H]1O [Example 35] |
| 3 | OC[C@H]1OC[C@H](Oc2nc3c(F)c(-c4ccc(-c5ccc(C6CNCCO6)cc5)cc4)c(F)cc3[nH]2)C[C@@H]1O (stereo partly drawn) [Example 36] |
| 17 | OC[C@H]1OC[C@H](Oc2nc3c(F)c(-c4ccc(-c5ccc(-c6ncco6)cc5)cc4)c(F)cc3[nH]2)C[C@@H]1O [Example 38] |
| 13 | OC[C@H]1OC[C@H](Oc2nc3c(F)c(-c4ccc(-c5ccc(-c6nccs6)cc5)cc4)c(F)cc3[nH]2)C[C@@H]1O [Example 39] |
| 5 | N=c1nc(N)[nH]n1-c1ccc(-c2ccc(-c3c(F)cc4[nH]c(O[C@H]5CO[C@H](CO)[C@@H](O)C5)nc4c3F)cc2)cc1 [Example 40] |
| 8 | O=S(=O)(c1ccc(-c2ccc(-c3c(F)cc4[nH]c(O[C@H]5CO[C@H](CO)[C@@H](O)C5)nc4c3F)cc2)cc1)C1CCNCC1 [Example 42] |
| 4 | O=C1NCCC1c1ccc(-c2ccc(-c3c(F)cc4[nH]c(O[C@H]5CO[C@H](CO)[C@@H](O)C5)nc4c3F)cc2)cc1 (stereo partly drawn) [Example 43] |
| 11 | O=C(O)CCCc1ccc(-c2ccc(-c3c(F)cc4[nH]c(O[C@H]5CO[C@H](CO)[C@@H](O)C5)nc4c3F)cc2)cc1 [Example 44] |
| 2 | OC[C@H]1OC[C@H](Oc2nc3c(F)c(-c4ccc(-c5ccc(-n6cncn6)cc5)cc4)c(F)cc3[nH]2)C[C@@H]1O [Example 45] |
| 7 | OC[C@H]1OC[C@H](Oc2nc3c(F)c(-c4ccc(-c5ccc(-c6nnc(O)o6)cc5)cc4)c(F)cc3[nH]2)C[C@@H]1O [Example 47] |
| 2 | CNC(=O)c1ccc(-c2ccc(-c3c(F)cc4[nH]c(O[C@H]5CO[C@H](CO)[C@@H](O)C5)nc4c3F)cc2)cc1 [Example 48] |
| 9 | OC[C@H]1OC[C@H](Oc2nc3c(F)c(-c4ccc(-c5ccc(-c6nnn[nH]6)cc5)cc4)c(F)cc3[nH]2)C[C@@H]1O [Example 49] |
| 7 | CC(C)(O)Cc1cnn(-c2ccc(-c3ccc(-c4c(F)cc5[nH]c(O[C@H]6CO[C@H](CO)[C@@H](O)C6)nc5c4F)cc3)cc2)c1 [Example 50] |

Same assay, conditions: recombinant human AMPK complex 7 (α2β1γ1); 10-point titration; read-out: % Maximum AMP Activation of human AMPK Complex 7

| Emax [%] | SMILES |
| --- | --- |
| 373 | OC[C@H]1OC[C@H](Oc2nc3cc(-c4ccc(-c5ccc(-c6nccc(O)n6)cc5)cc4)c(Cl)cc3[nH]2)C[C@@H]1O [Example 6] |
| 333 | CC(CO)(CO)c1ccc(-c2ccc(-c3cc4nc(O[C@H]5CO[C@H](CO)[C@@H](O)C5)[nH]c4cc3Cl)cc2)cc1 [Example 7] |
| 348 | OC[C@H]1OC[C@H](Oc2nc3cc(-c4ccc(-c5ccc(C6CNCCO6)cc5)cc4)c(Cl)cc3[nH]2)C[C@@H]1O (stereo partly drawn) [Example 8] |
| 373 | N=c1nc(N)[nH]n1-c1ccc(-c2ccc(-c3cc4nc(O[C@H]5CO[C@H](CO)[C@@H](O)C5)[nH]c4cc3Cl)cc2)cc1 [Example 16] |
| 364 | O=S(=O)(c1ccc(-c2ccc(-c3cc4nc(O[C@H]5CO[C@H](CO)[C@@H](O)C5)[nH]c4cc3Cl)cc2)cc1)C1CCNCC1 [Example 18] |
| 392 | O=C1NCCC1c1ccc(-c2ccc(-c3cc4nc(O[C@H]5CO[C@H](CO)[C@@H](O)C5)[nH]c4cc3Cl)cc2)cc1 (stereo partly drawn) [Example 19] |
| 400 | OC[C@H]1OC[C@H](Oc2nc3cc(-c4ccc(-c5ccc(-n6cncn6)cc5)cc4)c(Cl)cc3[nH]2)C[C@@H]1O [Example 21] |
| 387 | OC[C@H]1OC[C@H](Oc2nc3cc(-c4ccc(-c5ccc(-c6nnn[nH]6)cc5)cc4)c(Cl)cc3[nH]2)C[C@@H]1O [Example 23] |
| 360 | CC(C)(O)Cc1cnn(-c2ccc(-c3ccc(-c4cc5nc(O[C@H]6CO[C@H](CO)[C@@H](O)C6)[nH]c5cc4Cl)cc3)cc2)c1 [Example 24] |
| 370 | OC[C@H]1OC[C@H](Oc2nc3c(F)c(-c4ccc(-c5ccc(-c6nccc(O)n6)cc5)cc4)c(F)cc3[nH]2)C[C@@H]1O [Example 35] |
| 327 | OC[C@H]1OC[C@H](Oc2nc3c(F)c(-c4ccc(-c5ccc(C6CNCCO6)cc5)cc4)c(F)cc3[nH]2)C[C@@H]1O (stereo partly drawn) [Example 36] |
| 266 | OC[C@H]1OC[C@H](Oc2nc3c(F)c(-c4ccc(-c5ccc(-c6ncco6)cc5)cc4)c(F)cc3[nH]2)C[C@@H]1O [Example 38] |
| 192 | OC[C@H]1OC[C@H](Oc2nc3c(F)c(-c4ccc(-c5ccc(-c6nccs6)cc5)cc4)c(F)cc3[nH]2)C[C@@H]1O [Example 39] |
| 387 | N=c1nc(N)[nH]n1-c1ccc(-c2ccc(-c3c(F)cc4[nH]c(O[C@H]5CO[C@H](CO)[C@@H](O)C5)nc4c3F)cc2)cc1 [Example 40] |
| 401 | O=S(=O)(c1ccc(-c2ccc(-c3c(F)cc4[nH]c(O[C@H]5CO[C@H](CO)[C@@H](O)C5)nc4c3F)cc2)cc1)C1CCNCC1 [Example 42] |
| 398 | O=C1NCCC1c1ccc(-c2ccc(-c3c(F)cc4[nH]c(O[C@H]5CO[C@H](CO)[C@@H](O)C5)nc4c3F)cc2)cc1 (stereo partly drawn) [Example 43] |
| 426 | O=C(O)CCCc1ccc(-c2ccc(-c3c(F)cc4[nH]c(O[C@H]5CO[C@H](CO)[C@@H](O)C5)nc4c3F)cc2)cc1 [Example 44] |
| 391 | OC[C@H]1OC[C@H](Oc2nc3c(F)c(-c4ccc(-c5ccc(-n6cncn6)cc5)cc4)c(F)cc3[nH]2)C[C@@H]1O [Example 45] |
| 328 | OC[C@H]1OC[C@H](Oc2nc3c(F)c(-c4ccc(-c5ccc(-c6nnc(O)o6)cc5)cc4)c(F)cc3[nH]2)C[C@@H]1O [Example 47] |
| 414 | CNC(=O)c1ccc(-c2ccc(-c3c(F)cc4[nH]c(O[C@H]5CO[C@H](CO)[C@@H](O)C5)nc4c3F)cc2)cc1 [Example 48] |
| 419 | OC[C@H]1OC[C@H](Oc2nc3c(F)c(-c4ccc(-c5ccc(-c6nnn[nH]6)cc5)cc4)c(F)cc3[nH]2)C[C@@H]1O [Example 49] |
| 403 | CC(C)(O)Cc1cnn(-c2ccc(-c3ccc(-c4c(F)cc5[nH]c(O[C@H]6CO[C@H](CO)[C@@H](O)C6)nc5c4F)cc3)cc2)c1 [Example 50] |

Molecular target: recombinant human AMPK complex 1 (containing α1β1γ1) (Homo sapiens (Human), UniProt Q13131+Q9Y478)
Sequence (Q13131 whole entry): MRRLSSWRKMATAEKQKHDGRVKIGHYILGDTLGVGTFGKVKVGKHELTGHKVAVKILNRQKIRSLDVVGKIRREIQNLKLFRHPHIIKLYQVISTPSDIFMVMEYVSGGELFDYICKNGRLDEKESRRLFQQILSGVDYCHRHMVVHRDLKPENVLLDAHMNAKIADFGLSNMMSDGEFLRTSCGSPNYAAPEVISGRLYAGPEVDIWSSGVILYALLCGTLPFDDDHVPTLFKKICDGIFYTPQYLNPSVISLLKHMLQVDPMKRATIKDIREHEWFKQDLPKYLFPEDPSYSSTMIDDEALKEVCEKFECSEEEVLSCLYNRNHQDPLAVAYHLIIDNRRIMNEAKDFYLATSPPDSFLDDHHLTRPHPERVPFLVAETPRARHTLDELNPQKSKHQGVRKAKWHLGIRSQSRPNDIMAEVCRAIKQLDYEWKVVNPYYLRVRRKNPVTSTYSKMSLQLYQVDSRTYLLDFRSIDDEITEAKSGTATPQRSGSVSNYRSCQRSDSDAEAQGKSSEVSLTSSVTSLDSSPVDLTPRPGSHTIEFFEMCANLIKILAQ
Sequence (Q9Y478 whole entry): as the sequence (Q9Y478 whole entry) above
Sequence (P54619 whole entry partner): as the sequence (P54619 whole entry partner) above
Assay: In vitro AMPK activation assay (AMPKSAMSF), complex 1
Assay type: biochemical
Conditions: recombinant human AMPK complex 1 (α1β1γ1)
Method: as §1, §2

| SMILES | EC50 [nM] |
| --- | --- |
| CS(=O)(=O)Cc1ccc(-c2ccc(-c3cc4nc(O[C@H]5CO[C@H](CO)[C@@H](O)C5)[nH]c4cc3Cl)cc2)cc1 [Example 2] | 36 |
| CS(=O)(=O)c1ccc(-c2ccc(-c3c(F)cc4[nH]c(O[C@H]5CO[C@H](CO)[C@@H](O)C5)nc4c3F)cc2)cc1 [Example 26] | 7 |
| CC(C)(O)c1ccc(-c2ccc(-c3c(F)cc4[nH]c(O[C@H]5CO[C@H](CO)[C@@H](O)C5)nc4c3F)cc2)cc1 [Example 29] | 26 |

Same assay, conditions: recombinant human AMPK complex 1 (α1β1γ1); 10-point titration

| SMILES | % Maximum AMP Activation of human AMPK Complex 1 [%] |
| --- | --- |
| CS(=O)(=O)Cc1ccc(-c2ccc(-c3cc4nc(O[C@H]5CO[C@H](CO)[C@@H](O)C5)[nH]c4cc3Cl)cc2)cc1 [Example 2] | 490 |
| CS(=O)(=O)c1ccc(-c2ccc(-c3c(F)cc4[nH]c(O[C@H]5CO[C@H](CO)[C@@H](O)C5)nc4c3F)cc2)cc1 [Example 26] | 558 |
| CC(C)(O)c1ccc(-c2ccc(-c3c(F)cc4[nH]c(O[C@H]5CO[C@H](CO)[C@@H](O)C5)nc4c3F)cc2)cc1 [Example 29] | 492 |

System: ob/ob and db/db mice
Assay: not given
Conditions: following 8 weeks of administration; cited from earlier work

| SMILES | blood glucose reduction [%] |
| --- | --- |
| NC(=O)c1ncn([C@@H]2O[C@H](CO)[C@@H](O)[C@H]2O)c1N [AICAR] | 35 |
